Experimental data from patent US20110224079A1, “SPIROHETEROCYCLIC N-OXYAMIDES AS PESTICIDES” (SYNGENTA CROP PROTECTION LLC, priority 2008, published 2011).

Experiments:
[1] = test system: Myzus persicae (green peach aphid); test: Example B17: activity against Myzus persicae on sprayed pepper plants (feeding/residual contact); type: in vivo; conditions: 144 h, infested pepper plants sprayed, 6 days
[2] = test system: Aphis Craccivora (cowpea aphid); test: Example B11: translaminar activity against Aphis craccivora on French bean leaves; type: in vivo; conditions: 120 h, upper leaf side painted, aphids on lower side, 5 days
Method: Translaminar Activity Against Aphis Craccivora (Cowpea Aphid)
French bean leaves (Phaseolus vulgaris) are infested with about 20 mixed age individuals on the lower leaf side using clip cages. 1 day after the infestation, the upper side of the leaves is treated with the test solution by painting. 5 days later, samples are checked for mortality.

[3] = test system: Nilaparvata lugens (brown rice planthopper); test: Example B8: activity against Nilaparvata lugens, sprayed rice seedlings (larvicide, feeding/contact); conditions: in Oryza sativa, read-out: activity (mortality, growth regulation, effects on F1 generation)
[4] = test system: Myzus persicae (green peach aphid); test: Example B1: activity against Myzus persicae, sprayed sunflower leaf discs (feeding/residual contact, preventive); conditions: foliar, 144 h, read-out: activity (mortality)
[5] = test system: Myzus persicae (green peach aphid); test: Example B2: activity against Myzus persicae, pea seedling roots in test solution (systemic/feeding, curative); conditions: 144 h, read-out: activity (mortality)
[6] = test system: Aphis Craccivora (cowpea aphid); test: Example B9: activity against Aphis craccivora, sprayed pea seedlings (contact/feeding); type: in vivo; conditions: 144 h, infested pea seedlings sprayed, 6 days
Excerpt: (§1) Activity Against Aphis Craccivora (Cowpea Aphid)
(Mixed Population, Contact/Feeding)
6 days after treatment, samples are checked for mortality.

[7] = test system: Aphis Craccivora (cowpea aphid); test: Example B10: activity against Aphis craccivora, pea seedling roots in test solution (systemic/feeding); type: in vivo; conditions: 144 h, roots of infested pea seedlings in test solution, 6 days
Excerpt: as §1
(Mixed Population, Systemic/Feeding)

[8] = test system: Myzus persicae (green peach aphid); test: Example B13: drench activity against Myzus persicae, pea seedlings in field soil; conditions: 168 h, read-out: drench activity (mortality)
[9] = test system: Bemisia tabaci (tobacco white fly); test: Example B7: activity against Bemisia tabaci, sprayed bean plants (larvicide, contact/feeding); type: in vivo; conditions: 504 h, bean plants with N-2 nymphs sprayed, three weeks, read-out: activity (efficacy, number of emerged adults)
Method: Activity Against Bemisia tabaci (Tobacco White Fly)
(Larvicide, Contact/Feeding)
Bean plants are infested with 20-30 adults that were removed after a 4 day egg-laying period. After another 7 days, bean plants with hatched nymphs (N-2) are treated (2 replicates) with the test solutions in a spray chamber. Three weeks later, samples are checked for number of emerged adults. Efficacy was calculated by comparing number of emerged adults in treated and non treated samples.

[10] = test system: Tetranychus urticae (two-spotted spider mite); test: Example B4: activity against Tetranychus urticae, sprayed bean leaf discs (feeding/residual contact, preventive); conditions: foliar, 192 h, read-out: activity (egg, larval and adult mortality)
[11] = test system: Aonidiella Aurantii (red scale); test: Example B12: activity against Aonidiella aurantii, dipped potato tubers; type: in vivo; conditions: 6-8 weeks after application, read-out: activity (number of crawlers of the next generation)
Excerpt: Activity Against Aonidiella Aurantii (Red Scale)
Treatment of potato tubers by dipping the in the test solution. One day later, tubers are infested with about 50 crawlers. 6-8 weeks after application samples are checked for the number of crawlers of the next generation (compared to the non treated samples).

[12] = test system: Frankliniella occidentalis (western flower thrips); test: Example B6: activity against Frankliniella occidentalis, bean leaf discs or bean plants; type: in vivo; conditions: foliar, 6 days (leaf discs) or 14 days (plants) after infestation, read-out: activity (reduction of treated population)
Method: Activity Against Frankliniella occidentalis (Western Flower Thrips)
Bean leaf discs on agar in petri dishes or bean plants in a spray chamber are treated with diluted test solutions. After drying leaf discs are cut and placed in plastic cups on the surface of an agar layer and infested with mixed population. 6 days (leaf discs) or 14 days (plants) after the infestation, samples are checked for reduction of treated population and compared to the non treated population.

[13] = test system: Thrips tabaci (onion thrips); test: Example B3: activity against Thrips tabaci, sprayed sunflower leaf discs (feeding/residual contact, preventive); type: in vivo; conditions: foliar, 144 h, mixed population, 6 days
Excerpt: Activity Against Thrips tabaci (Onion Thrips)
(Mixed Population, Feeding/Residual Contact Activity, Preventive)

melting point | SMILES | mortality at 200 ppm [1] [%] | mortality at 400 ppm [2] [%] | mortality at 400 ppm [3] [%] | mortality at 400 ppm [4] [%] | mortality at 400 ppm [5] [%] | mortality at 400 ppm [6] [%] | mortality at 400 ppm [7] [%] | mortality at 25 ppm [8] [%] | mortality at 400 ppm [10] [%] | further results
– | CCOC(=O)OC1=C(c2cc(C)ccc2C)C(=O)N(OC)C12CCN(OC)CC2 [P1.1] | ≥ 80 | > 80 | > 80 | > 80 | > 80 | > 80 | > 80 | > 80 | – | –
– | CCOC(=O)OC1=C(c2cc(C)ccc2C)C(=O)N(OCCOC)C12CCN(OC)CC2 [P1.3] | ≥ 80 | > 80 | > 80 | > 80 | > 80 | > 80 | > 80 | > 80 | – | –
93 to 95 °C | COCON1C(=O)C(c2cc(C)ccc2C)=C(OC(=O)CC(C)(C)C)C12CCN(OC)CC2 [P1.5] | – | – | – | – | – | – | – | – | – | –
– | CCOC(=O)OC1=C(c2c(C)cc(C)cc2C)C(=O)N(OCCOC)C12CCN(OC)CC2 [P1.6] | – | > 80 | > 80 | > 80 | > 80 | – | – | > 80 | > 80 | pest or weed control at 200 ppm [9]: > 80%; pest or weed control at 200 ppm [11]: > 80%
– | CCOC(=O)OC1=C(c2c(C)cc(C)cc2C)C(=O)N(OCC2CCCCO2)C12CCN(OC)CC2 (stereo not drawn) [P1.26] | ≥ 80 | > 80 | > 80 | > 80 | > 80 | > 80 | > 80 | > 80 | > 80 | –
– | CCOC(=O)OC1=C(c2c(C)cc(C)cc2C)C(=O)N(OCOCCOC)C12CCN(OC)CC2 [P1.27] | ≥ 80 | > 80 | > 80 | > 80 | > 80 | > 80 | > 80 | > 80 | > 80 | pest or weed control at 400 ppm [12]: > 80%
91 to 93 °C | COCON1C(=O)C(c2cc(C)ccc2C)=C(OC)C12CCN(OC)CC2 [P1.31] | – | – | – | – | – | – | – | – | – | –
– | CCOC(=O)OC1=C(c2ccc(C)cc2C)C(=O)N(OC)C12CCN(OC)CC2 [P1.48] | ≥ 80 | > 80 | > 80 | > 80 | > 80 | > 80 | – | > 80 | > 80 | pest or weed control at 200 ppm [9]: > 80%
– | CCOC(=O)OC1=C(c2c(C)ccc(C)c2Cl)C(=O)N(OCCOC)C12CCN(OC)CC2 [P1.60] | – | > 80 | > 80 | > 80 | > 80 | > 80 | > 80 | > 80 | > 80 | pest or weed control at 400 ppm [12]: > 80%
116 to 119 °C | CCOC(=O)OC1=C(c2c(F)ccc(C)c2Cl)C(=O)N(OCOC)C12CCN(OC)CC2 [P1.61] | – | – | – | – | – | – | – | – | – | –
– | CCOC(=O)OC1=C(c2c(C)cc(C)cc2C)C(=O)N(OCC2CCOCC2)C12CCN(OC)CC2 [P1.82] | ≥ 80 | > 80 | > 80 | > 80 | > 80 | > 80 | > 80 | > 80 | > 80 | pest or weed control at 200 ppm [9]: > 80%
122 to 125 °C | CCOC(=O)OC1=C(c2c(C)cc(Cl)cc2C)C(=O)N(OC)C12CCN(OC)CC2 [P1.114] | – | – | – | – | – | – | – | – | – | –
– | COCCON1C(=O)C(c2c(C)cc(C)cc2C)=C(O)C12CCN(OC)CC2 [P2.5] | – | > 80 | > 80 | > 80 | > 80 | – | > 80 | > 80 | > 80 | pest or weed control at 200 ppm [9]: > 80%; pest or weed control at 200 ppm [11]: > 80%
– | CCON1C(=O)C(c2c(C)cc(C)cc2C)=C(O)C12CCN(OC)CC2 [P2.9] | ≥ 80 | > 80 | > 80 | > 80 | > 80 | > 80 | > 80 | > 80 | – | pest or weed control at 400 ppm [12]: > 80%; pest or weed control at 200 ppm [9]: > 80%
– | CON1CCC2(CC1)C(O)=C(c1c(C)cc(C)cc1C)C(=O)N2OCC1CC1 [P2.13] | ≥ 80 | > 80 | > 80 | > 80 | > 80 | > 80 | > 80 | > 80 | > 80 | mortality at 400 ppm [13]: > 80%; pest or weed control at 400 ppm [12]: > 80%
128 °C (dec.) | COCON1C(=O)C(c2c(C)cc(-c3ccc(Cl)cc3)cc2C)=C(O)C12CCN(OC)CC2 [P2.15, 3-(4′-Chloro-3,5-dimethyl-biphenyl-4-yl)-4-hydroxy-8-methoxy-1-methoxymethoxy-1,8-diaza-spiro[4.5]dec-3-en-2-one] | – | – | – | – | – | – | – | – | – | –
135 to 137 °C | CON1CCC2(CC1)C(O)=C(c1c(C)cc(C)cc1C)C(=O)N2OCCOC1CCCCO1 (stereo not drawn) [P2.22] | – | – | – | – | – | – | – | – | – | –
– | COCCOCON1C(=O)C(c2c(C)cc(C)cc2C)=C(O)C12CCN(OC)CC2 [P2.24] | ≥ 80 | > 80 | > 80 | > 80 | > 80 | > 80 | > 80 | > 80 | > 80 | –
– | COCON1C(=O)C(c2c(C)cc(C)cc2Cl)=C(O)C12CCN(OC)CC2 [P2.34] | – | > 80 | > 80 | > 80 | > 80 | > 80 | > 80 | > 80 | > 80 | mortality at 400 ppm [13]: > 80%
155 to 158 °C | COCON1C(=O)C(c2c(F)ccc(C)c2Cl)=C(O)C12CCN(OC)CC2 [P2.60] | – | – | – | – | – | – | – | – | – | –
63 to 64 °C | COCCON1C(=O)C(c2cc(Br)c(C)cc2C)=C(O)C12CCN(OC)CC2 [P2.73] | – | – | – | – | – | – | – | – | – | –
86 to 87 °C | CON1CCC2(CC1)C(O)=C(c1cc(Br)c(C)cc1C)C(=O)N2OC [P2.75] | – | – | – | – | – | – | – | – | – | –
71 to 74 °C | COCCON1C(=O)C(c2cc(Br)c(F)cc2C)=C(O)C12CCN(OC)CC2 [P2.87] | – | – | – | – | – | – | – | – | – | –
64 to 67 °C | COCON1C(=O)C(c2cc(Br)c(F)cc2C)=C(O)C12CCN(OC)CC2 [P2.89] | – | – | – | – | – | – | – | – | – | –
169 to 172 °C | CON1CCC2(CC1)C(O)=C(c1c(C)cc(C)cc1C)C(=O)N2OCC1CCCCC1 [P2.96] | – | – | – | – | – | – | – | – | – | –
161 to 164 °C | COCCON1C(=O)C(c2c(C)cc(Cl)cc2C)=C(O)C12CCN(OC)CC2 [P2.101] | – | – | – | – | – | – | – | – | – | –
88 to 92 °C | CON1CCC2(CC1)C(O)=C(c1c(C)cc(Cl)cc1C)C(=O)N2OC [P2.102] | – | – | – | – | – | – | – | – | – | –
176 to 178 °C | COCON1C(=O)C(c2c(C)cc(Cl)cc2C)=C(O)C12CCN(OC)CC2 [P2.104] | – | – | – | – | – | – | – | – | – | –
137 to 139 °C | CON1CCC2(CC1)C(O)=C(c1c(C)cc(Cl)cc1C)C(=O)N2OC1CCCO1 (stereo not drawn) [P2.105] | – | – | – | – | – | – | – | – | – | –
